ChEMBL document CHEMBL1201862, “PubChem BioAssay data set” (2004)
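Grown in 96-well plates, cells were treated for 48 hours with each compound at five concentrations. Insufficient inhibition: endpoint recorded as highest concentration tested. Here, GI50 denotes the concentration required for 50% inhibition of growth.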 The source made the active and inactive calls. Rule as the data show it: active = GI50 up to about 1.1 µM and inactive = higher.

Columns and labels:
Assay in all cases: NCI anticancer screen, dose series, 48 h
OVCAR-4 = test system: OVCAR-4
SK-MEL-2 = test system: SK-MEL-2
HL-60 = test system: HL-60
HOP-18 = test system: HOP-18
ACHN = test system: ACHN
SNB-75 = test system: SNB-75
SF-539 = test system: SF-539
A549 = test system: A549
RXF 631 = test system: RXF 631
RPMI-8226 = test system: RPMI-8226
SW-620 = test system: SW-620
RXF 393 = test system: RXF 393
NCI-H460 = test system: NCI-H460
DMS-273 = test system: DMS-273
CCRF-CEM = test system: CCRF-CEM
LOX IMVI = test system: LOX IMVI
COLO 205 = test system: COLO 205
Malme-3M = test system: Malme-3M
SN12C = test system: SN12C
UO-31 = test system: UO-31
NCI-H226 = test system: NCI-H226
SK-OV-3 = test system: SK-OV-3
HCC 2998 = test system: HCC 2998
SF-295 = test system: SF-295
SK-MEL-28 = test system: SK-MEL-28
K562 = test system: K562
A498 = test system: A498
HOP-62 = test system: HOP-62
SK-MEL-5 = test system: SK-MEL-5
UACC-257 = test system: UACC-257
HCT-116 = test system: HCT-116
KM12 = test system: KM12
HCT-15 = test system: HCT-15
SF-268 = test system: SF-268
UACC-62 = test system: UACC-62
786-0 = test system: 786-0
SNB-78 = test system: SNB-78
SNB-19 = test system: SNB-19
DMS-114 = test system: DMS-114
HT-29 = test system: HT-29
MOLT-4 = test system: MOLT-4
NCI-H522 = test system: NCI-H522
EKVX = test system: EKVX
U-251 = test system: U-251
DLD-1 = test system: DLD-1
OVCAR-3 = test system: OVCAR-3
LXFL 529 = test system: LXFL 529
IGROV-1 = test system: IGROV-1
CAKI-1 = test system: CAKI-1
KM-20L2 = test system: KM-20L2
M14 = test system: M14
M19-MEL = test system: M19-MEL
OVCAR-8 = test system: OVCAR-8
NCI-H23 = test system: NCI-H23
HOP-92 = test system: HOP-92
XF498 = test system: XF498
OVCAR-5 = test system: OVCAR-5
SR = test system: SR
TK-10 = test system: TK-10

CC(C)CCC[C@@H](C)C1CCC2[C@@H]3CC=C4C[C@@H](C(=O)NCC[N+](C)(C)CCCS(=O)(=O)[O-])CC[C@]4(C)C3CC[C@@]21C (some centres undefined)
GI50 (OVCAR-4): 20.3 µM (inactive) | GI50 (SK-MEL-2): 18.2 µM (inactive) | GI50 (HL-60): 13.4 µM (inactive) | GI50 (HOP-18): 17.7 µM (inactive) | GI50 (ACHN): 18.5 µM (inactive) | GI50 (SNB-75): 20.2 µM (inactive) | GI50 (SF-539): 21.3 µM (inactive) | GI50 (A549): 17.3 µM (inactive) | GI50 (RXF 631): 18.4 µM (inactive) | GI50 (RPMI-8226): 20.4 µM (inactive) | GI50 (SW-620): 16.6 µM (inactive) | GI50 (RXF 393): 20.9 µM (inactive) | GI50 (NCI-H460): 15.7 µM (inactive) | GI50 (DMS-273): 17 µM (inactive) | GI50 (CCRF-CEM): 16.2 µM (inactive) | GI50 (LOX IMVI): 11.7 µM (inactive) | GI50 (COLO 205): 17.5 µM (inactive) | GI50 (Malme-3M): 18.9 µM (inactive) | GI50 (SN12C): 17.9 µM (inactive) | GI50 (UO-31): 19.8 µM (inactive) | GI50 (NCI-H226): 21.2 µM (inactive) | GI50 (SK-OV-3): 16.8 µM (inactive) | GI50 (HCC 2998): 19.8 µM (inactive) | GI50 (SF-295): 20 µM (inactive) | GI50 (SK-MEL-28): 19.8 µM (inactive) | GI50 (K562): 14.2 µM (inactive) | GI50 (A498): > 10 µM (inactive) | GI50 (HOP-62): 24 µM (inactive) | GI50 (SK-MEL-5): 19.9 µM (inactive) | GI50 (UACC-257): 20 µM (inactive) | GI50 (HCT-116): 16.8 µM (inactive) | GI50 (KM12): 17.4 µM (inactive) | GI50 (HCT-15): 16.3 µM | GI50 (SF-268): 21.1 µM (inactive) | GI50 (UACC-62): 20.1 µM (inactive) | GI50 (786-0): 17.2 µM (inactive) | GI50 (SNB-78): 18.8 µM (inactive) | GI50 (SNB-19): 21.8 µM (inactive) | GI50 (DMS-114): 19.9 µM (inactive) | GI50 (HT-29): 18 µM (inactive) | GI50 (MOLT-4): 18.2 µM (inactive) | GI50 (NCI-H522): 11.5 µM (inactive) | GI50 (EKVX): 16.9 µM (inactive) | GI50 (U-251): 17.3 µM (inactive) | GI50 (DLD-1): 22.4 µM (inactive) | GI50 (OVCAR-3): 16.4 µM (inactive) | GI50 (LXFL 529): 18.8 µM (inactive) | GI50 (IGROV-1): 17.3 µM (inactive) | GI50 (CAKI-1): 14.2 µM (inactive) | GI50 (KM-20L2): 16.4 µM (inactive) | GI50 (M14): 17.2 µM (inactive) | GI50 (M19-MEL): 17.1 µM (inactive) | GI50 (OVCAR-8): 18.8 µM (inactive)

COc1ccc(-c2cc(O)c3cc(Cl)ccc3n2)cc1
GI50 (OVCAR-4): > 100 µM (inactive) | GI50 (HL-60): > 100 µM (inactive) | GI50 (HOP-18): 54.5 µM (inactive) | GI50 (ACHN): > 100 µM (inactive) | GI50 (SNB-75): > 100 µM (inactive) | GI50 (SF-539): > 100 µM (inactive) | GI50 (RXF 631): > 100 µM (inactive) | GI50 (RPMI-8226): > 100 µM (inactive) | GI50 (SW-620): > 100 µM (inactive) | GI50 (RXF 393): > 100 µM (inactive) | GI50 (NCI-H460): > 100 µM (inactive) | GI50 (CCRF-CEM): > 100 µM (inactive) | GI50 (LOX IMVI): > 100 µM (inactive) | GI50 (COLO 205): > 100 µM (inactive) | GI50 (Malme-3M): > 100 µM (inactive) | GI50 (SN12C): > 100 µM (inactive) | GI50 (NCI-H23): > 100 µM (inactive) | GI50 (UO-31): > 100 µM (inactive) | GI50 (NCI-H226): > 100 µM (inactive) | GI50 (SK-OV-3): > 100 µM (inactive) | GI50 (HCC 2998): > 100 µM (inactive) | GI50 (SF-295): > 100 µM (inactive) | GI50 (SK-MEL-28): > 100 µM (inactive) | GI50 (K562): > 100 µM (inactive) | GI50 (HOP-62): > 100 µM (inactive) | GI50 (SK-MEL-5): > 100 µM (inactive) | GI50 (UACC-257): > 100 µM (inactive) | GI50 (HCT-116): > 100 µM (inactive) | GI50 (KM12): 91.8 µM (inactive) | GI50 (SF-268): > 100 µM (inactive) | GI50 (UACC-62): > 100 µM (inactive) | GI50 (786-0): > 100 µM (inactive) | GI50 (SNB-78): > 100 µM (inactive) | GI50 (SNB-19): > 100 µM (inactive) | GI50 (DMS-114): > 100 µM (inactive) | GI50 (HOP-92): > 100 µM (inactive) | GI50 (HT-29): > 100 µM (inactive) | GI50 (MOLT-4): > 100 µM (inactive) | GI50 (XF498): > 100 µM (inactive) | GI50 (NCI-H522): > 100 µM (inactive) | GI50 (EKVX): > 100 µM (inactive) | GI50 (OVCAR-5): > 100 µM (inactive) | GI50 (SR): > 100 µM (inactive) | GI50 (DLD-1): > 100 µM (inactive) | GI50 (OVCAR-3): > 100 µM (inactive) | GI50 (LXFL 529): > 100 µM (inactive) | GI50 (IGROV-1): > 100 µM (inactive) | GI50 (TK-10): > 100 µM (inactive) | GI50 (KM-20L2): > 100 µM (inactive) | GI50 (M14): > 100 µM (inactive) | GI50 (M19-MEL): > 100 µM (inactive) | GI50 (OVCAR-8): > 100 µM (inactive)

O=C1NC2CCC(C2)C1c1ccccc1 (centres undefined)
GI50 (OVCAR-4): > 100 µM (inactive) | GI50 (HL-60): > 100 µM (inactive) | GI50 (HOP-18): > 100 µM (inactive) | GI50 (ACHN): > 100 µM (inactive) | GI50 (SNB-75): > 100 µM (inactive) | GI50 (SF-539): > 100 µM (inactive) | GI50 (A549): > 100 µM (inactive) | GI50 (RXF 631): > 100 µM (inactive) | GI50 (RPMI-8226): > 100 µM (inactive) | GI50 (SW-620): > 100 µM (inactive) | GI50 (RXF 393): > 100 µM (inactive) | GI50 (NCI-H460): > 100 µM (inactive) | GI50 (DMS-273): > 100 µM (inactive) | GI50 (CCRF-CEM): > 100 µM (inactive) | GI50 (LOX IMVI): > 100 µM (inactive) | GI50 (COLO 205): > 100 µM (inactive) | GI50 (Malme-3M): > 100 µM (inactive) | GI50 (SN12C): > 100 µM (inactive) | GI50 (NCI-H23): > 100 µM (inactive) | GI50 (UO-31): > 100 µM (inactive) | GI50 (NCI-H226): > 100 µM (inactive) | GI50 (SK-OV-3): > 100 µM (inactive) | GI50 (HCC 2998): > 100 µM (inactive) | GI50 (SF-295): > 100 µM (inactive) | GI50 (SK-MEL-28): > 100 µM (inactive) | GI50 (K562): > 100 µM (inactive) | GI50 (A498): > 100 µM (inactive) | GI50 (SK-MEL-5): > 100 µM (inactive) | GI50 (KM12): > 100 µM (inactive) | GI50 (SF-268): > 100 µM (inactive) | GI50 (UACC-62): > 100 µM (inactive) | GI50 (786-0): > 100 µM (inactive) | GI50 (SNB-78): > 100 µM (inactive) | GI50 (SNB-19): > 100 µM (inactive) | GI50 (DMS-114): > 100 µM (inactive) | GI50 (HT-29): > 100 µM (inactive) | GI50 (MOLT-4): > 100 µM (inactive) | GI50 (EKVX): > 100 µM (inactive) | GI50 (U-251): > 100 µM (inactive) | GI50 (OVCAR-5): > 100 µM (inactive) | GI50 (SR): > 100 µM (inactive) | GI50 (DLD-1): > 100 µM (inactive) | GI50 (OVCAR-3): > 100 µM (inactive) | GI50 (LXFL 529): > 100 µM (inactive) | GI50 (IGROV-1): > 100 µM (inactive) | GI50 (TK-10): > 100 µM (inactive) | GI50 (M14): > 100 µM (inactive) | GI50 (M19-MEL): > 100 µM (inactive) | GI50 (OVCAR-8): > 100 µM (inactive)
